Assay results published in article PMC5247677 (Scientific Reports, 2017).

Legend:
[1] = biological target: T1, mNaV1.7 (Mus musculus, UniProt Q62205); test: Whole-cell patch-clamp (PatchXpress), mNaV1.7; format: cell-based; settings: HEK293, pH 7.4, holding −120 mV, 20 ms test pulse 0 mV, mean ± SEM, read-out: pIC50 at mouse NaV1.7 (converted)
T1 construct: host or cells: HEK293

[2] = tested on: motor performance in rats; format: in vivo, rat (Sprague Dawley)
Description: FCA was administered undiluted in a volume of 150 μL by i.pl injection in rats. Behavioural assessment was performed 3 days post-injection of FCA. For intrathecal administration, a polyethylene lumbar catheter was inserted into the intrathecal space between vertebrae L4–L5. […] Mechanical paw withdrawal thresholds were determined using manual von Frey with a series of calibrated filaments 0.4–15.1 g (Stoelting Co., Wood Dale, USA) using the up-down method. Paw withdrawal latency to a thermal stimulus was determined using the Hargreaves test (Ugo Basile, Camerio VA, Italy). Motor co-ordination was assessed using an accelerating rotarod (Ugo Basile). Latency to fall was recorded in seconds, with a maximal cut off of 300 s. At the completion of experiments, catheter placement was checked by injection of lignocaine (2%, 10 μL) and observation of rapid bilateral hind limb paralysis.

[3] = biological target: α7 nAChR (Homo sapiens, UniProt P36544); test: FLIPR calcium responses in SH-SY5Y cells, α7 nAChR; format: cell-based; settings: FLIPR Tetra, choline with PNU120596, 0.1–10 μM, 5 min pre-treatment
[4] = biological target: T2, hNaV1.8 (Homo sapiens, UniProt Q9Y5Y9); test: cell-based; settings: whole cell patch-clamp
T2 construct: host or cells: CHO

[5] = biological target: α3 nAChR (Homo sapiens, UniProt P32297); test: FLIPR calcium responses in SH-SY5Y cells, α3 nAChR; format: cell-based; settings: FLIPR Tetra, nicotine 30 μM, 0.1–10 μM, 5 min pre-treatment
[6] = biological target: T3, hNaV1.5 (Homo sapiens, UniProt Q14524); test: cell-based; settings: whole cell electrophysiology, HEK293; pH 7.4, 0.1% BSA; holding −80 mV, test −20 mV; incubation 5–40 min; mean ± SEM, n = 3–9 cells; read-out: pIC50 at hNaV1.5 (converted)
T3 construct: host or cells: HEK293

[7] = biological target: T4, hNaV1.6 (Homo sapiens, UniProt Q9UQD0); test: cell-based; settings: whole cell electrophysiology, HEK293; pH 7.4, 0.1% BSA; holding −80 mV, test −20 mV; incubation 5–40 min; mean ± SEM, n = 3–9 cells; read-out: pIC50 at hNaV1.6 (converted)
T4 construct: host or cells: HEK293

[8] = biological target: T5, hNaV1.3 (Homo sapiens, UniProt Q9NY46); test: cell-based; settings: whole cell electrophysiology, HEK293; pH 7.4, 0.1% BSA; holding −80 mV, test −20 mV; incubation 5–40 min; mean ± SEM, n = 3–9 cells; read-out: pIC50 at hNaV1.3 (converted)
T5 construct: host or cells: HEK293

[9] = biological target: T6, hNaV1.4 (Homo sapiens, UniProt P35499); test: cell-based; settings: whole cell electrophysiology, HEK293; pH 7.4, 0.1% BSA; holding −80 mV, test −20 mV; incubation 5–40 min; mean ± SEM, n = 3–9 cells; read-out: pIC50 at hNaV1.4 (converted)
T6 construct: host or cells: HEK293

[10] = tested on: NaV1.7; settings: 0.3–3 mg/kg i.p., mice
Description: For behavioural assessment we used adult male C57BL/6 J mice or Sprague Dawley rats aged 5–8 weeks. Animals were housed in groups of 2–4 per cage, under 12 h light-dark cycles with standard rodent chow and water ad libitum. All assessments were performed by a blinded investigator unaware of the treatment each animal received. Ethical approval for in vivo experiments in animals was obtained from the University of Queensland, University of Sydney or United Kingdom Home Office animal ethics committee. Experiments involving animals were conducted in accordance with the International Association for the Study of Pain Guidelines for the Use of Animals in Research and the Australian Code of Practice for the Care and Use of Animals for Scientific Purposes, 8th edition (2013).

[11] = biological target: T7, hNaV1.9 (Homo sapiens, UniProt Q9UI33); test: cell-based; settings: PatchXpress, HEK293
T7 construct: host or cells: HEK293
Source text: Data were plotted and analyzed using GraphPad Prism, version 6.0. For concentration-response curves, a four-parameter Hill equation with variable Hill coefficient was fitted to the data. […] Data are presented as mean ± SEM.

[12] = biological target: T8, rKV2.1 (Rattus norvegicus, UniProt P15387); test: Two-electrode voltage-clamp in Xenopus oocytes, wild-type rKV2.1; format: cell-based; settings: Xenopus laevis oocytes, pH 7.6, 22 °C, 0.1% BSA
T8 construct: expressed in transfected cells; host or cells: Xenopus laevis oocytes

[13] = biological target: T9, hNaV1.2 (Homo sapiens, UniProt Q99250); test: cell-based; settings: whole cell electrophysiology, HEK293; pH 7.4, 0.1% BSA; holding −80 mV, test −20 mV; incubation 5–40 min; mean ± SEM, n = 3–9 cells; read-out: pIC50 at hNaV1.2 (converted)
T9 construct: host or cells: HEK293

[14] = biological target: T10, rNaV1.7 (Rattus norvegicus, UniProt O08562); test: Whole-cell patch-clamp (QPatch-16), rNaV1.7; format: cell-based; settings: QPatch-16, HEK293; pH 7.4, 0.1% BSA; holding −80 mV, test −20 mV; mean ± SEM; read-out: pIC50 at rat NaV1.7 (converted)
T10 construct: expressed in transfected cells; host or cells: HEK293

[15] = biological target: T11, hNaV1.1 (Homo sapiens, UniProt P35498); test: cell-based; settings: whole cell electrophysiology, HEK293; pH 7.4, 0.1% BSA; holding −80 mV, test −20 mV; incubation 5–40 min; mean ± SEM, n = 3–9 cells; read-out: pIC50 at hNaV1.1 (converted)
T11 construct: host or cells: HEK293

[16] = precluded chronic testing

T9 sequence (Q99250 whole entry): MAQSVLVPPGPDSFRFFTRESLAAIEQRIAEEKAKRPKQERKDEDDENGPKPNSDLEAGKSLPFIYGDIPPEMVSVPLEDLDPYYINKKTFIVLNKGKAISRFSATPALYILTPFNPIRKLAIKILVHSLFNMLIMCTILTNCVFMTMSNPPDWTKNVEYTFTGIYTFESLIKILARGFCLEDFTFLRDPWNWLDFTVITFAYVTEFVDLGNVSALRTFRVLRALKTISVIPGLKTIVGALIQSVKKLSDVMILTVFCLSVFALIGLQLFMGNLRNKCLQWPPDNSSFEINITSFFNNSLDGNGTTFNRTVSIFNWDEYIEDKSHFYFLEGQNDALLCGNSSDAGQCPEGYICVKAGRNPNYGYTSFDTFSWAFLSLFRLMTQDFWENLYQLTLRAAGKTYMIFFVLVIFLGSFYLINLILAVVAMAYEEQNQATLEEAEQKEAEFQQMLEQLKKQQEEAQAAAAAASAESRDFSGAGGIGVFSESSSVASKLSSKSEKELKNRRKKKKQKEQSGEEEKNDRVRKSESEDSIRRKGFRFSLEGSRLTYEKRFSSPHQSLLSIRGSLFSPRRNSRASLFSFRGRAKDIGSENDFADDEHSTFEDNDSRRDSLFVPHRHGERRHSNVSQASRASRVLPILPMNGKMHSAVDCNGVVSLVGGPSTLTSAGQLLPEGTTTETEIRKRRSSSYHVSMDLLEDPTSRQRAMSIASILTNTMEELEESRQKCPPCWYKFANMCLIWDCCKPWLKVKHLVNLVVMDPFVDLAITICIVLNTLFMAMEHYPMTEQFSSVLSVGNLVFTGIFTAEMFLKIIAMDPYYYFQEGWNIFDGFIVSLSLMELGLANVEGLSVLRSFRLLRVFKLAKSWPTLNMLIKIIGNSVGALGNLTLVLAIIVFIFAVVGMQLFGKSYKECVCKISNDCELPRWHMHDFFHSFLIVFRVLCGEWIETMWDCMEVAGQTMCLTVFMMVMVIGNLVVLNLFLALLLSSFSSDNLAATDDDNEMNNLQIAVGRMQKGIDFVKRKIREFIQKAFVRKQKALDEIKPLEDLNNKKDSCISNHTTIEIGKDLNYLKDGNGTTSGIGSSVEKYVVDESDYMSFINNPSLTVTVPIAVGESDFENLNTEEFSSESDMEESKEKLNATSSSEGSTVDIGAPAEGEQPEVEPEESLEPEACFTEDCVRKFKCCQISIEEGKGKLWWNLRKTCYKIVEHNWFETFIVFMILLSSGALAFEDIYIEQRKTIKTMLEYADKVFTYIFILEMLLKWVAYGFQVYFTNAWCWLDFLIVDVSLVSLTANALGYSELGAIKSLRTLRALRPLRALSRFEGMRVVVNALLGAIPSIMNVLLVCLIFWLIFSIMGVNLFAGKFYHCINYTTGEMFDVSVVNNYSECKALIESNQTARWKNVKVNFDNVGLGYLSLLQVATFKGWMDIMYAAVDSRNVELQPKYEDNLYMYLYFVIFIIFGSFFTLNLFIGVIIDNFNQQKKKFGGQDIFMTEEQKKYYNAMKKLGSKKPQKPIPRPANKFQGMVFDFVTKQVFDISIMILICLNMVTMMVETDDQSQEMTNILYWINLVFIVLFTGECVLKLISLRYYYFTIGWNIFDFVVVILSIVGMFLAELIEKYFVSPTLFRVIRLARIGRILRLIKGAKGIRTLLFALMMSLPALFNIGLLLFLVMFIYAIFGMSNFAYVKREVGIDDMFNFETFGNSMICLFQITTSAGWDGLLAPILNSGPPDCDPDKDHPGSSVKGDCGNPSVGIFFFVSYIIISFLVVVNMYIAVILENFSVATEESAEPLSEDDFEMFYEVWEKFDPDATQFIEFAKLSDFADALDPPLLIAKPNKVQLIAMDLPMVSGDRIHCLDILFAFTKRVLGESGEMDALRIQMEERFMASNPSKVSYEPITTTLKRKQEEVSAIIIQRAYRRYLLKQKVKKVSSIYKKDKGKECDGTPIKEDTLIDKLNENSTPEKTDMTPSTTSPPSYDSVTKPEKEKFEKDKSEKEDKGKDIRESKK
α3 nAChR, sequence (P32297 32-505): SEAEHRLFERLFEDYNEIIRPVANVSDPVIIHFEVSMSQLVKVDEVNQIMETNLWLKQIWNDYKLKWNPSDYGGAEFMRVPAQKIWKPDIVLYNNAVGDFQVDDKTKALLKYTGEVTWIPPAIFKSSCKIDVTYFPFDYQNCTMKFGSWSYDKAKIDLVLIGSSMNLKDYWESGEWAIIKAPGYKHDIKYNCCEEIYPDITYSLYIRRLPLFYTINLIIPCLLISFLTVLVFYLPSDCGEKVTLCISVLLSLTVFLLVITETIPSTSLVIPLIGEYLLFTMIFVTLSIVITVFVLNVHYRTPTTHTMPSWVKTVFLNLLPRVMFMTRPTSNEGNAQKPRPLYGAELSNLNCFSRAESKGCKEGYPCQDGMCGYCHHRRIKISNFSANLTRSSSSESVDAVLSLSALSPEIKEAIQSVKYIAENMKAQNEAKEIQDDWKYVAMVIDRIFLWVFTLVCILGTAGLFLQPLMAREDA
T6 sequence (P35499 whole entry): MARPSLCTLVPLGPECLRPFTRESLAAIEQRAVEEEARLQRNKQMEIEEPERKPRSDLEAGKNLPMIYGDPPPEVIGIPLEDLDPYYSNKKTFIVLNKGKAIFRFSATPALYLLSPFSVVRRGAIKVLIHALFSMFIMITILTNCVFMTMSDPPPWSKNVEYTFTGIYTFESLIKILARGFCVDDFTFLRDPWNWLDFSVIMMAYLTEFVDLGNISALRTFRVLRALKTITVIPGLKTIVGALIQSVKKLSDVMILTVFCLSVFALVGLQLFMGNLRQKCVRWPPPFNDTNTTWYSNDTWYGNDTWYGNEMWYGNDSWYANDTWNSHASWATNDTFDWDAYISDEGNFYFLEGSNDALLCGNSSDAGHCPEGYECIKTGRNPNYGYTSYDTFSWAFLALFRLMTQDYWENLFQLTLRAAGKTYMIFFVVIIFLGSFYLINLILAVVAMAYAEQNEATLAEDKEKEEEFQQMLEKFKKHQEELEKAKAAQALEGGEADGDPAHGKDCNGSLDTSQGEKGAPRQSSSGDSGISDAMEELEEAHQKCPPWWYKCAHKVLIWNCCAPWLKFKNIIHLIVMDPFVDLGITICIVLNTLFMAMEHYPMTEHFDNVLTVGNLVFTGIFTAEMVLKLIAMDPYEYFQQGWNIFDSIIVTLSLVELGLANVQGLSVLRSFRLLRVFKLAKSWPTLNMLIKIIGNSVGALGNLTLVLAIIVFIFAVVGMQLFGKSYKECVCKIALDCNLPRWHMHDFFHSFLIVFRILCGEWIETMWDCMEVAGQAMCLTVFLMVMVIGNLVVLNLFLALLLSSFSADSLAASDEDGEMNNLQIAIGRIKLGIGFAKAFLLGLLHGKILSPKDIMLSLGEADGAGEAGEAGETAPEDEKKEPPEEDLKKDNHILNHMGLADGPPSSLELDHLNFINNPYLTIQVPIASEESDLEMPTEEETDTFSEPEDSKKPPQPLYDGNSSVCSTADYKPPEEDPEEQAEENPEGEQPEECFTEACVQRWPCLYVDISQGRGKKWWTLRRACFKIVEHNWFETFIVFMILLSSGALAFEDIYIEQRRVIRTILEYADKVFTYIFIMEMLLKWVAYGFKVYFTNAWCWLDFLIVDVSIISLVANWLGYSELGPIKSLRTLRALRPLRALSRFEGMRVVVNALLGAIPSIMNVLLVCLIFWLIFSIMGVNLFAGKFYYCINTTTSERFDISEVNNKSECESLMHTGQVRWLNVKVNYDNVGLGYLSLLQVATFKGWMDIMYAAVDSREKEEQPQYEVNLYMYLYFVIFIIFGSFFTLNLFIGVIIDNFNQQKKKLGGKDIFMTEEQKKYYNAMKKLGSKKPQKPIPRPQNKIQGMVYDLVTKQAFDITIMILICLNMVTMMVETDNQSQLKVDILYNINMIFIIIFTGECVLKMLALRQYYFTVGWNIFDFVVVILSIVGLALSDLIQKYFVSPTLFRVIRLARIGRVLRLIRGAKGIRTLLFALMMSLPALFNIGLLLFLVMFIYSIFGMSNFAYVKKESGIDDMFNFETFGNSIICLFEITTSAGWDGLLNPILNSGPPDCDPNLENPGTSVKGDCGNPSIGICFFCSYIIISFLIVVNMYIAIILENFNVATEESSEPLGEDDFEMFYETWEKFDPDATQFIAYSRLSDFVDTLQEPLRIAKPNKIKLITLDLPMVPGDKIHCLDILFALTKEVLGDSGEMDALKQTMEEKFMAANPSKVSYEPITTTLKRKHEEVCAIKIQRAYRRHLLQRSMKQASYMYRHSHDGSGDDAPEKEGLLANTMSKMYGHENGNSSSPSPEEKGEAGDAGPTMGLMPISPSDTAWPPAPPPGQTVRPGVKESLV
α7 nAChR, sequence (P36544 23-502): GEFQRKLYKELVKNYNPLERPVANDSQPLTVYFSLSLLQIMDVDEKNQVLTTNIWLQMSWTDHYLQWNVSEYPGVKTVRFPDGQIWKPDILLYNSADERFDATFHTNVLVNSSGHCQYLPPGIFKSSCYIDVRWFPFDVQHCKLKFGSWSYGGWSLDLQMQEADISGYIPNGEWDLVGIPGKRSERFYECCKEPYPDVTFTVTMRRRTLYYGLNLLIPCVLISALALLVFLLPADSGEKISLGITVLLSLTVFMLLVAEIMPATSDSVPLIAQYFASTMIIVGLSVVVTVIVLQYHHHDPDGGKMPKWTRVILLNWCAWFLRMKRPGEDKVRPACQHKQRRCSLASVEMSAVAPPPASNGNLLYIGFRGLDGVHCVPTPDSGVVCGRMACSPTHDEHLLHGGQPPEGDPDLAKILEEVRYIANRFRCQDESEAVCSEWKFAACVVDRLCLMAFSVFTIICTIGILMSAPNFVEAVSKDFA

CSCC[C@@H]1NC(=O)[C@H](Cc2ccc(O)cc2)NC(=O)[C@H](CCCNC(=N)N)NC(=O)[C@@H](NC(=O)[C@@H](N)CC(=O)O)CSSC[C@@H]2NC(=O)[C@@H]3CSSC[C@@H](C(=O)N[C@@H](C)C(=O)N[C@@H](Cc4c[nH]c5ccccc45)C(=O)N[C@@H](CC(=O)O)C(=O)N[C@@H](Cc4ccccc4)C(=O)N[C@H](C(=O)N[C@@H](Cc4ccccc4)C(=O)N[C@H](C(=O)O)[C@@H](C)O)[C@@H](C)O)NC(=O)[C@H](Cc4ccc(O)cc4)NC(=O)[C@H](CCCCN)NC(=O)[C@H](CCSC)NC(=O)[C@H](CCCCN)NC(=O)[C@H](CCCNC(=N)N)NC(=O)[C@H](CCCCN)NC(=O)[C@H](CSSC[C@H](NC(=O)[C@H](CC(=O)O)NC(=O)CNC(=O)[C@H](Cc4ccccc4)NC1=O)C(=O)N[C@@H](CCC(=O)O)C(=O)N[C@@H](CCCCN)C(=O)N[C@@H](CC(=O)O)C(=O)N[C@@H](CCC(=O)O)C(=O)N[C@@H](CC(=O)O)C(=O)N3)NC(=O)CNC(=O)[C@H](CC(C)C)NC(=O)[C@H](Cc1cnc[nH]1)NC(=O)[C@H](CCCCN)NC2=O [Pn3a, μ-theraphotoxin-Pn3a]
IC50 [1]: 0.00437 µM
Rotarod % Baseline ([2]; 0.3 nmoles intrathecal, control 88 ± 7%, P > 0.05, unpaired t-test, n = 4–9): 91 ± 11%
motor effect ([2]; 1 nmole intrathecal, rats, data not shown): motor impairment was observed
IC50 [3]: > 10 µM
IC50 [4]: 49.9 µM
IC50 [5]: > 10 µM
IC50 [6]: 0.794 µM
IC50 [7]: 0.129 µM
IC50 [8]: 0.209 µM
IC50 [9]: 0.145 µM
adverse effects [10]: absence of adverse effects
IC50 [11]: 2.43 µM
IC50 [12]: > 0.3 µM
IC50 [13]: 0.123 µM
IC50 [14]: 0.00148 µM
IC50 [15]: 0.0372 µM
pharmacokinetics [16]: poor pharmacokinetics
